# Assay results as given in patent publication US20210290644A1, “COMPOUNDS AND METHODS FOR TREATING FUNGAL INFECTIONS” (Amplyx Pharmaceuticals, Inc., priority 2018, published 2021).
# “And” between values parts separate entries of the source, which are not always exact repeats. Equal values may be shown once.
# Assay: Study #1 Phase 1: plasma and urine pharmacokinetics of Compound 1 and Compound 1A after IV infusion of Compound 1 (SAD, MAD, loading regimen)
# Conditions: both, human
# [1] = plasma, 30 mg, Cohort 2: Compound 1 30 mg/3 hr IV, single dose, geometric mean [geometric %CV]
# [2] = plasma, 100 mg, Cohort 3: Compound 1 100 mg/3 hr IV, single dose, geometric mean [geometric %CV]
# [3] = plasma, 200 mg, Cohort 4: Compound 1 200 mg/3 hr IV, single dose, geometric mean [geometric %CV]
# [4] = plasma, 275 mg, Cohort 5: Compound 1 275 mg/3 hr IV, single dose, geometric mean [geometric %CV]
# From the text: This was a Phase 1, first-in-human, randomized, double-blind, placebo-controlled single ascending dose (SAD) and multiple ascending dose (MAD) escalation study of 120 healthy male and female subjects. The objectives of the study were to evaluate the safety, tolerability, and pharmacokinetics of single and multiple doses of Compound 1 administered by intravenous (IV) infusion.
# In the single ascending dose (SAD) phase, Cohorts 1 to 6 and 11A to 11D received single doses. For Cohorts 11A to 11D, the infusion time varied from 0.5 to 3 hours to evaluate the relationship between C., and tolerability. In the multiple ascending dose (MAD) phase, Cohorts 7 to 10 received multiple doses over 14 days, and Cohort 12 examined the feasibility of a loading dose regimen.
# Blood samples for the determination of Compound 1 and Compound 1A plasma concentrations were collected before and at appropriate times during all single- and multiple-dose administrations of Compound 1. For SAD Cohorts 1 to 6, urine samples for the determination of Compound 1A were collected through 48 hrs after dosing.
# Eighty (80) subjects were enrolled into SAD Cohorts 1 to 6 and 11A to 11D. Within each cohort, six subjects were randomized to Compound 1 and two subjects to placebo. All 60 subjects randomized to Compound 1 completed dosing. Fifty-nine (59) subjects completed the study.
# Forty (40) subjects were enrolled into MAD Cohorts 7 to 10 and Loading Dose Cohort 12. Within each cohort, six subjects were randomized to Compound 1 and two subjects to placebo.
# The PK analysis population therefore consisted of 60 subjects in the SAD phase and 28 subjects in the MAD phase.
compound,measurement,setting,value
Nc1ncccc1-c1cc(Cc2ccc(COc3ccccn3)cc2)no1 [Compound 1A],Vd,"in vivo, 10 mg",1.53 L/kg
same,Vd,"in vivo, 50 mg",188 L
same,AUC(0-t),"in vivo, 200 mg",76000 ng·h/mL
same,AUC(0-t),"plasma, 10 mg, AUC(0-24), Cohort 1: Compound 1 10 mg/3 hr IV, single dose, geometric mean [geometric %CV]",1540 ng·h/mL
same,AUC(0-t),"plasma, 10 mg, AUC(0-t), Cohort 1: Compound 1 10 mg/3 hr IV, single dose, geometric mean [geometric %CV]",2380 ng·h/mL
same,AUC(0-inf),"plasma, 10 mg, Cohort 1: Compound 1 10 mg/3 hr IV, single dose, geometric mean [geometric %CV]",4050 ng·h/mL
same,Tmax,"plasma, 10 mg, Cohort 1: Compound 1 10 mg/3 hr IV, single dose, median",3 h
same,Vd,"plasma, 10 mg, Vz, Cohort 1: Compound 1 10 mg/3 hr IV, single dose, geometric mean [geometric %CV]",107 L
same,AUC(0-t),"plasma, 30 mg, AUC(0-24), Cohort 2: Compound 1 30 mg/3 hr IV, single dose, geometric mean [geometric %CV]",4320 ng·h/mL
same,AUC(0-t),"plasma, 30 mg, AUC(0-t), Cohort 2: Compound 1 30 mg/3 hr IV, single dose, geometric mean [geometric %CV]",14100 ng·h/mL
same,AUC(0-inf),[1],16600 ng·h/mL
same,Cmax,[1],477 ng/mL
same,Tmax,"plasma, 30 mg, Cohort 2: Compound 1 30 mg/3 hr IV, single dose, median",3 h
same,Vd,"plasma, 30 mg, Vz, Cohort 2: Compound 1 30 mg/3 hr IV, single dose, geometric mean [geometric %CV]",121 L and 1.72 L/kg
same,AUC(0-t),"plasma, 50 mg, AUC(0-24), Cohort 7: Compound 1 50 mg/3 hr IV QD × 14 days, Day 1, geometric mean",6390 ng·h/mL
same,AUC(0-t),"plasma, 50 mg, AUC(0-24), Cohort 7: Compound 1 50 mg/3 hr IV QD × 14 days, Day 7, geometric mean",17600 ng·h/mL
same,AUC(0-t),"plasma, 50 mg, AUC(0-24), Cohort 7: Compound 1 50 mg/3 hr IV QD × 14 days, Day 14, geometric mean",20300 ng·h/mL
same,Cmax,"plasma, 50 mg, Cohort 7: Compound 1 50 mg/3 hr IV QD × 14 days, Day 1, geometric mean",669 ng/mL
same,Cmax,"plasma, 50 mg, Cohort 7: Compound 1 50 mg/3 hr IV QD × 14 days, Day 7, geometric mean",1090 ng/mL
same,Cmax,"plasma, 50 mg, Cohort 7: Compound 1 50 mg/3 hr IV QD × 14 days, Day 14, geometric mean",1180 ng/mL
same,Tmax,"plasma, 50 mg, Cohort 7: Compound 1 50 mg/3 hr IV QD × 14 days, Day 1, median",3 h
same,Tmax,"plasma, 50 mg, Cohort 7: Compound 1 50 mg/3 hr IV QD × 14 days, Day 7, median",3 h
same,Tmax,"plasma, 50 mg, Cohort 7: Compound 1 50 mg/3 hr IV QD × 14 days, Day 14, median",3 h
same,Vd,"plasma, 50 mg, Vz, Cohort 7: Compound 1 50 mg/3 hr IV QD × 14 days, Day 14, geometric mean",2.44 L/kg
same,AUC(0-t),"plasma, 100 mg, AUC(0-24), Cohort 3: Compound 1 100 mg/3 hr IV, single dose, geometric mean [geometric %CV]",14400 ng·h/mL
same,AUC(0-t),"plasma, 100 mg, AUC(0-t), Cohort 3: Compound 1 100 mg/3 hr IV, single dose, geometric mean [geometric %CV]",47400 ng·h/mL
same,AUC(0-inf),[2],50400 ng·h/mL
same,Cmax,[2],1440 ng/mL
same,Tmax,"plasma, 100 mg, Cohort 3: Compound 1 100 mg/3 hr IV, single dose, median",3 h
same,Vd,"plasma, 100 mg, Vz, Cohort 3: Compound 1 100 mg/3 hr IV, single dose, geometric mean [geometric %CV]",115 L and 1.88 L/kg
same,AUC(0-t),"plasma, 150 mg, AUC(0-24), Cohort 8: Compound 1 150 mg/3 hr IV QD × 14 days, Day 1, geometric mean",19400 ng·h/mL
same,AUC(0-t),"plasma, 150 mg, AUC(0-24), Cohort 8: Compound 1 150 mg/3 hr IV QD × 14 days, Day 7, geometric mean",48700 ng·h/mL
same,Cmax,"plasma, 150 mg, Cohort 8: Compound 1 150 mg/3 hr IV QD × 14 days, Day 1, geometric mean",1860 ng/mL
same,Cmax,"plasma, 150 mg, Cohort 8: Compound 1 150 mg/3 hr IV QD × 14 days, Day 7, geometric mean",3090 ng/mL
same,Tmax,"plasma, 150 mg, Cohort 8: Compound 1 150 mg/3 hr IV QD × 14 days, Day 1, median",3 h
same,Tmax,"plasma, 150 mg, Cohort 8: Compound 1 150 mg/3 hr IV QD × 14 days, Day 7, median",3 h
same,Tmax,"plasma, 150 mg, Cohort 8: Compound 1 150 mg/3 hr IV QD × 14 days, Day 14, median",3.02 h
same,AUC(0-t),"plasma, 200 mg, AUC(0-24), Cohort 4: Compound 1 200 mg/3 hr IV, single dose, geometric mean [geometric %CV]",20700 ng·h/mL
same,AUC(0-inf),[3],83200 ng·h/mL
same,Cmax,[3],2410 ng/mL
same,Tmax,"plasma, 200 mg, Cohort 4: Compound 1 200 mg/3 hr IV, single dose, median",3 h
same,Vd,"plasma, 200 mg, Vz, Cohort 4: Compound 1 200 mg/3 hr IV, single dose, geometric mean [geometric %CV]",178 L and 2.46 L/kg
same,AUC(0-t),"plasma, 275 mg, AUC(0-24), Cohort 5: Compound 1 275 mg/3 hr IV, single dose, geometric mean [geometric %CV]",37100 ng·h/mL
same,AUC(0-t),"plasma, 275 mg, AUC(0-t), Cohort 5: Compound 1 275 mg/3 hr IV, single dose, geometric mean [geometric %CV]",114000 ng·h/mL
same,AUC(0-inf),[4],120000 ng·h/mL
same,Cmax,[4],3960 ng/mL
same,Tmax,"plasma, 275 mg, Cohort 5: Compound 1 275 mg/3 hr IV, single dose, median",3 h
same,Vd,"plasma, 275 mg, Vz, Cohort 5: Compound 1 275 mg/3 hr IV, single dose, geometric mean [geometric %CV]",123 L and 1.75 L/kg
same,AUC(0-t),"plasma, 300 mg, AUC(0-24), Cohort 9: Compound 1 300 mg/3 hr IV QD × 14 days, Day 1, geometric mean",37100 ng·h/mL
same,AUC(0-t),"plasma, 300 mg, AUC(0-24), Cohort 9: Compound 1 300 mg/3 hr IV QD × 14 days, Day 7, geometric mean",104000 ng·h/mL
